{"source": "patent US6955907B1", "about": "“Alkaline, protease VapK suitable for laundry detergent, VapK gene, recombinant expression vector, and transformed microorganisms” (priority 1999, dated 2005)", "molecules": {"B1": {"name": "VapK: alkaline serine protease of 27 kDa produced by Vibrio metschnikovii KS1, amino acid sequence SEQ ID NO. 1 (protein, listed as Vibrio metschnikovii)", "chain": "MFKKNVNRTVLAGLLLPTSISLAIASQLKDQEVPSFTPSVAVENHQTEQRYFVTYVPGATSGPMRMSQNGLTETDFSLQKAADILSTQQVTVINHLESLHTSVVRVTPTQAKQLLDNADVAMIEVDPIRYLFDAEIEPYAQQTPYGIRMVQADQLSDVYAANRKVCVIDSGYLRNHVDLPSAGVTGSTFSGHGSWFTDGNGHGTHVAGTIVALDNNVGVVGVLPSGLVGLHNVKIFNDSGVWTRASDLIQAIQSCQSAGSHVVNMSLGGSQGSVTEQKPMRNFYQQGMLLVAAAGNSGNSGFSYPASYDAVVSVAAVNSSGNVANFSQFNSQVELSAPGVGVLSTGNNGGYLSYSGTSMASPHVAGVAALVWSHFPQCRPERIRQSLSQTALDRGAAGRDNFYGWGIVQARRAYNWLSRNGC"}}, "key": {"protease VapK [1]": {"tested_on": "protease VapK", "experiment": "Effects of inhibitors on the activity of the protease VapK", "type": "biochemical, Vibrio metschnikovii KS1", "procedure": "(§1) The activity of the alkaline protease was determined by the method of Yanagida et al with minor modifications. The reaction mixture was prepared by mixing 100 mM sodium carbonate solution with the supernatant formed after centrifuging the culture broth at 6,000 rpm for 15 minutes. 0.5 ml of the fermentation broth was mixed with 2.5 ml of 1% prewarmed casein solution in 100 mM sodium carbonate buffer (pH 10.5). The resulting mixture was incubated at 37° C. for 10 minutes. The reaction was terminated by adding a solution consisting 0.22 M trichloroacetic acid, 0.22 M sodium acetate and 0.22 M acetic acid. The reaction mixture was placed on ice for 10 minutes followed by centrifugation. 1 ml of the supernatant was mixed with 9 ml of distilled water. The optical density (O.D.) was measured at 280 nm. The result is indicated as unit. One unit of the enzyme is defined as the amount of protein which produces an increase of 0.1 absorbance unit under the assay conditions."}, "protease VapK [2]": {"tested_on": "protease VapK", "experiment": "Resistance of the protease VapK to surfactants (N-succinyl-ala-ala-pro-phe-p-nitroanilide substrate)", "type": "biochemical, Vibrio metschnikovii KS1", "conditions": "for Relative Residual Activity (%): 25° C. for 25 minutes, relative to activity without surfactant", "procedure": "In addition, the resistance of the protease VapK to various surfactants was tested. The enzyme sample was appropriately diluted in distilled water. The diluted solution was mixed with each surfactant in the same ratio. The mixture was reacted at 25° C. for 25 minutes. A substrate solution of 5 mM N-succinyl-ala-ala-pro-phe-p-nitroanilide in 1 M tris-HCl, pH 9.0 was added to the reaction mixture in the ratio of 1 to 10. The reaction mixture was reacted at 25° C. for 30 minutes. The optical density of the reaction mixture was measured at 410 nm to determine the enzymatic activity of the protease VapK."}, "casein": {"tested_on": "casein", "experiment": "Alkaline protease activity of culture broth (casein method of Yanagida et al, modified)", "type": "biochemical", "procedure": "as §1\nE. coil HB101 harboring the plasmid pSB1 was cultured in an LB medium. The culture broth was recovered and subjected to electrophoresis. As a result (FIG. 8), the expressed protease VapK was detected at the 27 kDa band. In addition, the proteolytic activity of the enzyme was measured."}, "[3]": {"type": "biochemical", "text": "It can be seen from the above results that the vapk gene contained in the recombinant plasmid pSB1 was expressed in E. coli HB 101 and the expressed protease VapK was secreted extracellularly. […] (FIG. 9)."}, "[4]": {"conditions": "inhibitor 1 mM, pre-reacted 20 minutes at 4° C."}, "[5]": {"conditions": "inhibitor 1 mM, pre-reacted 20 minutes at 20° C."}}, "note": "“Also recorded” adds a separate entry of the source.", "data": [{"molecule": "O=C(O)CN(CCN(CC(=O)O)CC(=O)O)CC(=O)O", "note": "[EDTA, ethylenediamine tetraacetic acid]", "values": [{"measurement": "Relative Activity (%)", "setting": "protease VapK [1]; inhibitor 100 mM, pre-reacted 20 minutes at 4° C.", "value": 86, "unit": "%"}, {"measurement": "Relative Activity (%)", "setting": "protease VapK [1]; inhibitor 100 mM, pre-reacted 20 minutes at 20° C.", "value": 100, "unit": "%"}]}, {"molecule": "O=C(O)CN(CCOCCOCCN(CC(=O)O)CC(=O)O)CC(=O)O", "note": "[EGTA, ethyleneglycol-bis(β-aminoethyl ether)N,N,N′,N′-tetraacetic acid]", "values": [{"measurement": "Relative Activity (%)", "setting": "protease VapK [1]; [4]", "value": 100, "unit": "%"}, {"measurement": "Relative Activity (%)", "setting": "protease VapK [1]; [5]", "value": 100, "unit": "%"}]}, {"molecule": "N[C@@H](CS)C(=O)O", "note": "[L-cysteine]", "values": [{"measurement": "Relative Activity (%)", "setting": "protease VapK [1]; [4]", "value": 99, "unit": "%"}, {"measurement": "Relative Activity (%)", "setting": "protease VapK [1]; [5]", "value": 100, "unit": "%"}]}, {"molecule": "O=S(=O)(F)Cc1ccccc1", "note": "[PMSF, phenylmethanesulfonyl fluoride]", "values": [{"measurement": "inhibition of the enzymatic activity of the protease VapK (in words)", "setting": "protease VapK [1]", "value": "inhibited"}, {"measurement": "Relative Activity (%)", "setting": "protease VapK [1]; [4]", "value": 6, "unit": "%"}, {"measurement": "Relative Activity (%)", "setting": "protease VapK [1]; [5]", "value": 13, "unit": "%"}]}, {"molecule": "CCCCCCCCCCCCOS(=O)(=O)[O-].[Na+]", "note": "[SDS, sodium dodecyl sulfate]", "values": [{"measurement": "Relative Residual Activity (%)", "setting": "protease VapK [2]; surfactant 1000 ppm", "value": ">100", "unit": "%"}, {"measurement": "Relative Residual Activity (%)", "setting": "protease VapK [2]; surfactant 1500 ppm", "value": "<70", "unit": "%"}]}, {"molecule": "Polyoxyethylene Alkylether [Polyoxyethylene Alkylether (EO = 15 mol)]", "values": [{"measurement": "Relative Residual Activity (%)", "setting": "protease VapK [2]; surfactant 30000 ppm", "value": ">100", "unit": "%"}]}, {"molecule": "Sodium-α-olefin sulfonate [AOS]", "values": [{"measurement": "Relative Residual Activity (%)", "setting": "protease VapK [2]; surfactant 10000 ppm", "value": ">100", "unit": "%"}, {"measurement": "Relative Residual Activity (%)", "setting": "protease VapK [2]; surfactant 15000 ppm", "value": ">70", "unit": "%"}]}, {"molecule": "B1", "values": [{"measurement": "Activity (proteolytic activity of expressed Vap K)", "setting": "casein; Strain E. coli HB 101 harboring plasmid pSB1, LB medium culture broth", "value": 30.3, "unit": "unit/ml"}, {"measurement": "Activity (proteolytic activity of expressed Vap K)", "setting": "casein; Strain Vibrio metschnikovii KS1, culture broth", "value": 956.2, "unit": "unit/ml"}, {"measurement": "resistance / stability to surfactants (in words)", "setting": "protease VapK [2]; surfactants such as LAS, SDS, AOS, polyoxyethylene alkylether", "value": "very resistant; also recorded: high resistance; also recorded: very stable"}, {"measurement": "influence of temperature on stability", "setting": "[3]", "value": "influenced slightly"}, {"measurement": "pH of optimum activity", "setting": "[3]", "value": 10.5}, {"measurement": "stability over pH", "setting": "[3]", "value": "stability in the entire pH range"}, {"measurement": "temperature of optimum activity", "setting": "[3]", "value": 50, "unit": "°C"}]}]}
